Laboratory results reported in publication PMC8833215 (2022).

Columns and labels:
[1] = test system: 5'CAG/3'GCC internal loop RNA (closing GC mutated to CG) (RNA, mismatch bulge abasic) CUCAGGUGAAACAUCCGAG; assay: microscale thermophoresis; conditions: 1x Binding Buffer, 0.1% Tween-20, room temperature; for Kd: no saturable binding
[2] = test system: 5'GAG/3'CCC internal loop RNA (Cy5-labeled model of pri-miR-27a's Drosha site) (RNA, mismatch bulge abasic) CUGAGGUGAAACAUCCCAG; assay: microscale thermophoresis; conditions: 1x Binding Buffer; for Kd: 0.1% Tween-20, 10 nM Cy5-RNA, room temperature
[3] = test system: fully paired RNA (loop mutated to a base pair) (RNA, hairpin) CUGAGGUGAAACAUCUCAG; assay: microscale thermophoresis; conditions: 1x Binding Buffer, 0.1% Tween-20, room temperature
[4] = test system: mutated pri-miR-27a (both 5'GAG/3'CCC loops mutated to base pairs) (RNA, miRNA) GAGAGAGGCCCCGAAGCCUGUGCCUGGCCUGAGGAGCAGGGCUUAGCUGCUUGUGAGCAGGGUCCACACCAAGUCGUGUUCACAGUGGCUAAGUUCCGCUCCUCAGGCCCUCACCUCCUCUGGCCUUGCC; assay: competitive binding assay; conditions: 100 nM compound; competes with Cy5-labeled model of the Drosha site
[5] = test system: WT pri-miR-27a (unlabeled miR-27a precursor) (RNA, miRNA) GAGAGAGGCCCCGAAGCCUGUGCCUGGCCUGAGGAGCAGGGCUUAGCUGCUUGUGAGCAGGGUCCACACCAAGUCGUGUUCACAGUGGCUAAGUUCCGCCCCCCAGGCCCUCACCUCCUCUGGCCUUGCC; assay: competitive binding assay; conditions: 100 nM compound; competes with Cy5-labeled model of the Drosha site

`C#CCN(CC(N)=O)C(=O)C[C@H](Cc1c[nH]c2ccccc12)NC(=O)[C@@H]1C[C@@H](NC(=O)Cn2c(=O)[nH]c3ccccc3c2=O)CN1` was tested, and the binding [1] was “no”, the binding ([2]; 0.1% Tween-20, room temperature) was “no” and the binding [3] was “no”.
For `C#CCN(CC(N)=O)C(=O)C[C@H](Cc1c[nH]c2ccccc12)NC(=O)[C@@H]1C[C@H](NC(=O)Cn2c(=O)[nH]c3ccccc3c2=O)CN1`, the Kd [1] was > 50000 nM, the binding [4] was “no” and the Kd [2] was 90 ± 20 nM. The Kd [5] was 40 ± 30 nM and the binding ([3]; no saturable binding) was “no”.
`C#CCN(CC(N)=O)C(=O)[C@@H]1CCN1C(=O)[C@@H]1C[C@H](N)CN1C(=O)c1ccccc1C(=O)N1CCOCC1` was tested, and the Kd [1] was > 50000 nM, the Kd [2] was 700 ± 100 nM and the binding ([3]; no saturable binding) was “no”.
In the case of `C#CCN(CC(N)=O)C(=O)[C@H](Cc1ccccc1C#N)NC(=O)[C@@H]1C[C@H](NC(=O)[C@H]2CCCO2)CN1`, the Kd [1] was > 50000 nM, the Kd [2] was 530 ± 90 nM and the binding ([3]; no saturable binding) was “no”.
